Experimental data: article PMC4819940 (Cancer Chemotherapy and Pharmacology, 2016)
Like-named read-outs stand apart in the source and are kept apart here.

Test system: Japanese patients with advanced solid malignancies
Experimental: This was a phase 1, open-label, multicenter, dose escalation study. […] All doses were required to be taken in a fasted state (no caloric intake from 2 h before dosing to 1 h after dosing).
All evaluations during the bid dosing regimen were conducted in 21-day assessment cycles. Patients were enrolled to ensure a minimum of three and a maximum of six evaluable patients per cohort. Dose escalation and de-escalation were determined by the number of dose-limiting toxicities (DLTs; defined as any toxicity related to study drug as assessed by the investigator and not attributable to the disease under investigation) in a cohort. […] If one patient in a group of […] evaluable patients experienced a DLT, the cohort was expanded to include six evaluable patients. […] If ≥2 patients in a group of up to six evaluable patients experienced a DLT, irrespective of the number of patients enrolled, the dose was considered not tolerated and recruitment to the cohort and dose escalation was ceased. De-escalation to a lower intermediary dose could be considered in order to better define the MTD.
Based on emerging clinical data from the continuous dosing regimen of this study and data from the Western Study 1 (D3610C00001, NCT01226316), which was running in parallel with the Japanese study, an intermittent dosing regimen was also evaluated in Japanese patients and with a starting dose of 480 mg bid and a 4/3 dosing schedule.
Safety and tolerability were assessed in terms of adverse events (AEs), serious adverse events (SAEs), deaths, laboratory data, vital signs, electrocardiogram (ECG), assessment of glucose metabolism, and physical examination. AEs were graded according to the Common Terminology Criteria for Adverse Events (CTCAE) version 4.0. Any AE occurring after the first dose of study treatment and within 30 days of the last dose of study treatment was included in the AE summaries.

## NC1(C(=O)N[C@@H](CCO)c2ccc(Cl)cc2)CCN(c2ncnc3[nH]ccc23)CC1 [AZD5363]
80 mg bid continuous, n=3
  AE with outcome of death: Any: 0 (0.0) number (%) of patients
240 mg bid continuous, n=7
  AE with outcome of death: Any: 0 (0.0) number (%) of patients
320 mg bid continuous, n=6
  AE with outcome of death: Any: 0 (0.0) number (%) of patients
360 mg bid intermittent 4/3, n=8
  AE with outcome of death: Any: 0 (0.0) number (%) of patients
400 mg bid continuous, n=5
  AE with outcome of death: Any: 0 (0.0) number (%) of patients
480 mg bid intermittent 4/3, n=6
  AE with outcome of death: Any: 0 (0.0) number (%) of patients
640 mg bid intermittent 2/5, n=6
  AE with outcome of death: Any: 0 (0.0) number (%) of patients
Total, n=41
  AE with outcome of death: Any: 0 (0.0) number (%) of patients
Either of the intermittent dosing schedules
  MTD: not reached
human, in vivo
  AEs of CTCAE grade ≥3: Any: 26 (63.4) number (%) of patients
  AEs of CTCAE grade ≥3: Diarrhea: 7 (17.1) number (%) of patients
  AEs of CTCAE grade ≥3: Hyperglycemia: 16 (39.0) number (%) of patients
  AEs of CTCAE grade ≥3: Lymphocyte count decreased: 3 (7.3) number (%) of patients
  AEs of CTCAE grade ≥3: Neutrophil count decreased: 4 (9.8) number (%) of patients
  AEs: Blood creatinine increased: 14 (34.1) number (%) of patients
  AEs: Decreased appetite: 20 (48.8) number (%) of patients
  AEs: Diarrhea: 32 (78.0) number (%) of patients
  AEs: Hyperglycemia: 28 (68.3) number (%) of patients
  AEs: Maculopapular rash: 23 (56.1) number (%) of patients
  AEs: Nausea: 23 (56.1) number (%) of patients
  AEs: Proteinuria: 16 (39.0) number (%) of patients
  AEs: Pyrexia: 20 (48.8) number (%) of patients
  AEs: Stomatitis: 17 (41.5) number (%) of patients
  AEs: White blood cell count decreased: 13 (31.7) number (%) of patients
  Adverse events (AEs): Any: 40 (97.6) number (%) of patients
  SAE: Any: 3 (7.3) number (%) of patients
  patients who experienced an AE of CTCAE grade ≥3: 63.4%
  patients who experienced at least one AE: 97.6%
  patients with AE diarrhea: 78.0%
  patients with AE hyperglycemia: 68.3%
  patients with AE maculopapular rash: 56.1%
  patients with AE nausea: 56.1%
  patients with AEs leading to dose interruption: 39.0%
  patients with CTCAE grade ≥3 diarrhea: 17.1%
  patients with CTCAE grade ≥3 hyperglycemia: 39.0%
  patients with a grade ≥3 AE considered to be treatment related: 58.5%
  patients with discontinuation due to an AE: 12.2%
In vivo
  DLTs reported: No DLTs
  patients who experienced DLTs: five
  patients who experienced an SAE: Three
overall, all cohorts
  deaths related to AEs: no deaths
